Read-outs that look alike come from different tables or passages of the source.
Experiments:
HEp3 cells = assay: Transwell migration with pathway inhibitors, with or without anti-CD151 antibody 1A5; type: cell-based, human
Experimental: In Vitro Transwell Migration: Tumor cells in a single cell suspension were plated into the top chamber of 8 μm transwell (Costar) inserts in the presence of serum free/insulin free media. Cell culture media containing 10% fetal bovine serum was placed in the bottom chamber to serve as a chemoattractant. Migration assays were carried out for 12 hrs in a 37° C. cell culture incubator containing 5% CO2. The top surface of the inserts was cleaned with a cotton swab soaked with PBS to remove the non-migrated cells. The transwell inserts were subsequently fixed in methanol and stained with 0.2% crystal violet. The number of migrated cells was counted in 3 independent fields under 20× magnification with a light microscope.
Transwell migration assays were performed in the presence or absence of each inhibitor together with or without the anti-CD151 antibody 1A5.

Rap1A = assay: Rap1 activation assay (GTP-bound Rap1A pull-down, immunoblot); type: cell-based; conditions: HEp3 cells; PKCα inhibited by pharmacological means
Experimental: Rap1 activation was analyzed using the Rap1 activation kit (Chemicon). All treatments were performed in the presence of serum free/insulin free media. Cells to be assayed were washed with ice cold PBS and lysed in RIPA like Rap1 buffer (10% glycerol, 50 mM Tris/HCl, 150 mM NaCl, 5 mM phenylmethylsulfonyl fluoride, 1 mM sodium orthovanadate). The lysates were pushed through a 25 gauge syringe and cleared by centrifugation at max speed at 4 degrees for 10 min. Equal amounts of lysates were immunoprecipitated with Ra1GDS RBD conjugated agarose beads for 45 minutes at 4° C. After washing the beads where resuspended with sample buffer and boiled for 5 minutes. The immunoprecipitates were separated by SDS-Page as mentioned above, transferred to PVDF membranes, probed with the anti-Rap1 antibody and horse radish peroxidase-conjugated secondary antibody. After washing the membranes were developed by autoradiography.
To evaluate whether Rap1A was activated in response to CD151 clustering as well as ALCAM-ALCAM ligation, HEp3 cells were treated with 1A5 or seeded on ALCAM-FC for up to 48 hrs. Active Rap1A in the cells was evaluated by immunblotting of GTP-bound Rap1A affinity purified from lysates with Ra1-GDS beads.

PC3 cells [1] = assay: ALCAM expression in response to TGFβ (RT-PCR, Western blot); type: cell-based, human
Experimental: (§1) SDS-PAGE and immunoblotting. Cells (2.5×10^5) were plated in 6-well dishes. After 24 h, cells were serum starved in Opti-MEM for 16 h and then treated in the presence or absence of indicated growth factors or inhibitors, for 48 h. After that, the cells were lysed in TNE Lysis Buffer (20 mM Tris-Cl [pH 7.4], 0.5 mM EDTA, 1% Triton X-100, 150 mM NaCl, protease inhibitor cocktail (sigma), 1 mM phenylmethylsulfonyl fluoride). Total protein in the lysates was quantified using BCA assay (BioRad). Conditioned media samples were concentrated with microcon centrifugal filters (Millipore) following manufacturers protocol, which were eluted directly in 5× sample buffer for Western blot analysis. Protein loading for conditioned-medium samples for Western blot analysis was adjusted according to the total protein in cell lysates. Conditioned media and total protein was subjected to SDS-PAGE and electrophoretic transfer to polyvinylidene difluoride membranes (Immobilon P, Millipore, Inc., Bedford, Mass.). Immunodetection was done by conventional chemiluminescence
(§2) The mRNA samples were prepared from tumor cells lysed in TRI Reagent (Ambion) and purified using phenol extraction, followed by real-time polymerase chain reaction (RT-PCR). The following qPCR primers were used ALCAM, […] (forward) and […] (reverse); ADAM17, […] (forward) and […] (reverse); and glyceraldehyde-3-phosphate dehydrogenase, […] (forward) and TTCCCCATGGTGTCTGAGC (reverse).
(§3) ALCAM is proteolytically shed from PC3 cells (FIG. 21). Absence of the cytoplasmic tail confirms that the ectodomain is shed (FIG. 21A). Moreover, ALCAM is absent from PC3-derived exosomes ensuring that the ectodomain is shed and not released with cell-derived microparticles (FIG. 21B). Since prostate cancer disseminates predominantly to bone we selected cytokines thought to be involved in this process, including TGFβ. […] To further explore the response to exogenous stimulation with TGFβ, ALCAM expression in PC3 cells was compared to ALCAM expression in LNCaP cells which are unable to respond to the cytokine because they lack TGFβ receptor type I (FIGS. 23B and 23C). […] TGFβ-induced expression in PC3 cells could be abrogated with the small molecule inhibitor SB431542 (FIG. 23D, 10 μm; Sigma) while TGFβ-induced ALCAM mRNA and protein expression could be restored in LNCaP cells when the cells were transfected with dominant-active TGFβ receptor type I (FIGS. 23E and 23F).

PC3 cells [2] = assay: ALCAM shedding in conditioned media of cytokine-treated cells (ELISA); type: cell-based, human; conditions: PC3 concentrated conditioned media; 8 agents tested
LNCaP cells = assay: ALCAM expression in response to TGFβ (RT-PCR, Western blot); type: cell-based, human; conditions: lack TGFβ receptor type I
Experimental: as §1, §2, §3

[3] = In vivo ALCAM serum half-life; conditions: serum injected retrorbitally in ALCAM KO mice; ELISA
Experimental: Serum was harvested from ALCAM wild-type, mixed background, mice and pooled. Combined serum collected from WT mice was injected retrorbitally in ALCAM KO mice (100 μl/mouse). ALCAM KO mice were pre-bled via saphenous vein bleed, and then bled at 10 mins, 2 hours, 4 hours, 24 hours and 48 hours (n=2/time point; total n=10). WT pooled serum was used as ELISA control to quantitatively determine ALCAM serum half-life.
To determine if tumor-derived ALCAM is the source of elevated circulating ALCAM, species-specific antibodies were used to monitor circulating levels of both host (mouse) ALCAM and tumor (human) ALCAM longitudinally during orthotopic and subcutaneous growth of PC3 cells (FIG. 24). The half-life of human ALCAM in the circulation of its mouse host was determined to confirm that tumor-derived ALCAM could act as a stable biomarker in vivo (FIG. 25).

[4] = HEp3 cells, ± anti-CD151 antibody 1A5

In the case of N#CC(=C(/N)Sc1ccccc1N)/C(C#N)=C(\N)Sc1ccccc1N [U0126], the “Transwell migration in the presence or absence of inhibitor, with or without 1A5” value (HEp3 cells) is reported as “inhibited migration independent of anti-CD151 antibody treatment”.

With COC(=O)[C@H](CC(C)C)NC(=O)c1ccc(NC[C@@H](N)CS)cc1-c1cccc2ccccc12 [GGTI-298] the “Transwell migration in the presence or absence of inhibitor, with or without 1A5” value (HEp3 cells; [4]) was “allowed for migration of untreated cells but prevented 1A5 from inhibiting migration”.

With COc1ccc2c(c[n+](C)c3c4cc5c(cc4ccc23)OCO5)c1OC [Chelerythrin] the “Transwell migration in the presence or absence of inhibitor, with or without 1A5” value (HEp3 cells; [4]) was “allowed for migration of untreated cells but prevented 1A5 from inhibiting migration” and the “Rap1A activation by 1A5 after PKCα disruption” value (Rap1A) was 1A5 was unable to promote Rap1A activation.

With NC(=O)c1ccc(-c2nc(-c3ccc4c(c3)OCO4)c(-c3ccccn3)[nH]2)cc1 [SB431542] the “TGFβ-induced ALCAM expression” value (PC3 cells [1]; 10 μm inhibitor, 10 ng/ml TGFβ, 48 hrs) was “abrogated”.

With TGFβ the ALCAM shedding (PC3 cells [2]) was “promoted ALCAM shedding relative to overall total protein increase”, the “ALCAM gene transcription (quantitative RT-PCR)” value (PC3 cells [1]; 10 ng/ml TGFβ, 48 hrs) was “able to induce ALCAM gene transcription in PC3” and the “ALCAM protein expression and ectodomain shedding (Western blot)” value (PC3 cells [1]; cell lysate and conditioned media) was “increased levels of ALCAM protein expression and ectodomain shedding”. The “response of ALCAM expression to TGFβ” value (LNCaP cells) was “did not respond”.

B1: ALCAM: circulating soluble Activated Leukocyte Cell Adhesion Molecule (shed ectodomain) in serum (protein, UniProt Q13740 28-527, looked up)
extracellular domain: WYTVNSAYGDTIIIPCRLDVPQNLMFGKWKYEKPDGSPVFIAFRSSTKKSVQYDDVPEYKDRLNLSENYTLSISNARISDEKRFVCMLVTEDNVFEAPTIVKVFKQPSKPEIVSKALFLETEQLKKLGDCISEDSYPDGNITWYRNGKVLHPLEGAVVIIFKKEMDPVTQLYTMTSTLEYKTTKADIQMPFTCSVTYYGPSGQKTIHSEQAVFDIYYPTEQVTIQVLPPKNAIKEGDNITLKCLGNGNPPPEEFLFYLPGQPEGIRSSNTYTLTDVRRNATGDYKCSLIDKKSMIASTAITVHYLDLSLNPSGEVTRQIGDALPVSCTISASRNATVVWMKDNIRLRSSPSFSSLHYQDAGNYVCETALQEVEGLKKRESLTLIVEGKPQIKMTKKTDPSGLSKTIICHVEGFPKPAIQWTITGSGSVINQTEESPYINGRYYSKIIISPEENVTLTCTAENQLERTVNSLNVSAISIPEHDEADEISDENREKVNDQAK
modifications: extracellular domain shed soluble form
Molecule B1 has a half-life in circulation [3] of 17 h.

From patent US10585102B2, “Characterization of cancer using detection of activated leukocyte cell adhesion molecule (ALCAM) shedding” (Vanderbilt University, priority 2012, dated 2020)
